Laboratory results as given in PMC5159558 (Nucleic Acids Research, 2016).

Assays:
RET1ΔNC = target: T1, RET1ΔNC (Trypanosoma brucei, UniProt Q8WQX5); test: X-ray crystal structure, […] Å; type: binding; settings: 0.5 mM UMPnPP, 1 mM MgCl2; active site; non-hydrolysable UTP analogue
T1 sequence (Q8WQX5 189-699): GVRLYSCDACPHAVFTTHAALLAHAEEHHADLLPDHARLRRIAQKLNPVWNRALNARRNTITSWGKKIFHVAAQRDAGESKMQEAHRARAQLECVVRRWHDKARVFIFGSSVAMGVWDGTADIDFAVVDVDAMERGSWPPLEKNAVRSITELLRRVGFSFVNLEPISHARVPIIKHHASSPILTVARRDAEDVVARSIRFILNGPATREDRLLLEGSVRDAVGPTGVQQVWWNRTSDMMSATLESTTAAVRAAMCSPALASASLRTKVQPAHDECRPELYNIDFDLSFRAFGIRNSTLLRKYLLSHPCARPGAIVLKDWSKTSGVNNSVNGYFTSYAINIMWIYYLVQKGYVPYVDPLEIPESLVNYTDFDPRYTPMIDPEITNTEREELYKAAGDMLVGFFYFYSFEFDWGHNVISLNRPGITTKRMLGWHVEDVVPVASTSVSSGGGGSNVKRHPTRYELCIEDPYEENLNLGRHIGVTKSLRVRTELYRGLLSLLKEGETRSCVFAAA

TUT4 = target: T2, TUT4 (Trypanosoma brucei, UniProt Q381M1); test: X-ray crystal structure, […] Å; type: binding; settings: Mg2+
T2 sequence (Q381M1 1-333): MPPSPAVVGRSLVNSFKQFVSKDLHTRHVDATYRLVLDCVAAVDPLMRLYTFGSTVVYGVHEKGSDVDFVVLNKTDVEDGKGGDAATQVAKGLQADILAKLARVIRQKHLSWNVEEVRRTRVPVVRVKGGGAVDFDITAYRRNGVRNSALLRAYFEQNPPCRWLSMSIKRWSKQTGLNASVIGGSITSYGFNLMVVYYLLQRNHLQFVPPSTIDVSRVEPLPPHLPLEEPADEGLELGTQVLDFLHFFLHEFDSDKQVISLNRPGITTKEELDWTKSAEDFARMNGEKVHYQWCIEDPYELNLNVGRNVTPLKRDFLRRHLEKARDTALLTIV

`O=c1ccn([C@@H]2O[C@H](COP(=O)(O)NP(=O)(O)OP(=O)(O)O)[C@@H](O)[C@H]2O)c(=O)[nH]1` [UMPnPP] was tested, and the “X-ray crystal structure, 1.8 Å (soaked crystals)” value (RET1ΔNC) was “Crystals of RET1ΔNC in complex with the UTP analog UMPNPP were obtained by soaking”.
With `O=c1ccn([C@@H]2O[C@H](COP(=O)(O)OP(=O)(O)OP(=O)(O)O)[C@@H](O)[C@H]2O)c(=O)[nH]1` [UTP] the “X-ray crystal structure, 2.75 Å” value (TUT4; ternary complex with UpU, co-crystallised with UTP) was “structure of TUT4 from T. brucei with bound UTP and RNA-mimicking dinucleotide UpU”.
With `O=c1ccn([C@@H]2O[C@H](COP(=O)(O)O[C@H]3[C@@H](O)[C@H](n4ccc(=O)[nH]c4=O)O[C@@H]3CO)[C@@H](O)[C@H]2O)c(=O)[nH]1` [UpU] the “X-ray crystal structure, 2.75 Å” value (TUT4; ternary complex with UTP, crystals soaked in 1 mM UpU) was “structure of TUT4 from T. brucei with bound UTP and RNA-mimicking dinucleotide UpU”.
